Read-outs that look alike come from different tables or passages of the source.
What was measured:
[1] = test system: Leishmania tarentolae promastigotes (LtP); experiment: Resazurin viability assay for LtP; type: cell-based; conditions: for IC50: Leishmania tarentolae, read-out: LtP IC50; for Selectivity IC50,J774/IC50,LtP: ratio of IC50 in J774 macrophages to IC50 in LtP; for IC50,non-EP/IC50,EP: ratio of IC50 of non-EP in LtP versus IC50 of respective EP
Method: (§1) The influence of AcEP and their analogs (Ac) on the viability of cells was tested in Leishmania tarentolae promastigotes (LtP) and J774 macrophages (Table 2). Based on the changes of viability of the respective cell lines at different compound concentrations, IC50 values were calculated. In Table 2, the IC50 values in both cell lines were compared for the individual compounds. From the ratio of IC50 values in J774 macrophages to IC50 values in LtP, an in vitro selectivity was calculated.
LtP (strain P10 from Jena Bioscience, Jena, Germany) were cultivated according to manufacturer instructions up to passage 50 in brain heart infusion medium (37 g/L, pH 7.4) and supplemented with 5 mg/L hemin and 25,000 IU/L penicillin and 25 mg/L streptomycin in 50 mL TubeSpin bioreactors (TPP, Trasadingen. Switzerland). LtP were grown at 27 °C in an incubator (Ehret, Emmendingen, Germany) and agitated at a frequency of 0.05 s^−1. […] For experiments, LtP were used one day after passage. The cell number was calculated by measuring the optical density (OD) of the culture at 600 nm with a U-1100 photometer (Hitachi Ltd., Tokyo, Japan) and applying the formula × 10^6 cells/mL = OD600nm × 0.969 × 124 × dilution factor [53].
Assay medium of YEM (20.7 g/L yeast extract powder, 1.2 g/L K2HPO4, 0.2 g/L KH2PO4, 2.9 g/L glucose, pH 7.4) and PBS (1:1, v/v), 25,000 U/L penicillin, 25 mg/L streptomycin, and 7.7 µM hemin was prepared. Aliquots of 200 µL of this medium and 2 × 10^6 LtP/mL (where required) were distributed in non-treated cell culture 96-well plates. Compounds (dissolved in DMSO) were added with starting concentrations of 25 µM (Pen) or 200 µM (AcEP/Ac), and then, serial dilutions were carried out resulting in a set of concentrations (25, 5, 1, 0.2, 0.04, and 0.008 µM) or (200, 40, 8, 1.6, 0.32, and 0.064 µM). For each compound concentration, at least triplicates on each plate were performed. After incubation of the plates at 27 °C for 48 h, 50 µL of resazurin solution (final concentration in wells 20 µM) was added to each well and after 4 h of incubation, the fluorescence was measured at 560 nm excitation and 590 nm emission using a plate reader (Perkin Elmer EnSpire, Rodgau, Germany) (adapted from). Combination assays for viability in the presence of PIH and NAC were performed the same way. […] All tests were repeated at least on four different weeks of cultivation.
(§2) Calculations were carried out using Microsoft Excel 2016 (Microsoft). The graphs were created using Origin 6.1 (OriginLab Corporation, Northampton, MA, USA). For all groups of experimental data, mean and standard deviation (SD) were calculated. Statistically significant differences between groups of sample data were identified by unpaired two-tailed Student’s t-test. Differences on the level of p < 0.05 were considered significant. The number of replicates is indicated at the respective figures/tables. The half-maximal inhibitory concentrations (IC50) were determined from non-linear concentration-response curves using a four-parameter logistic model and expressed as the mean ± SD.

J774 macrophages = experiment: Resazurin viability assay for J774 macrophages; type: cell-based, murine; conditions: read-out: J774 IC50
Method: as §1
The murine macrophage cell line J774A.1 (ATCC, TIB-67™, Wesel, Germany) was cultivated up to passage 30 in DMEM (high glucose, 3.7 g/L NaHCO3, pH 7.4) with 25,000 IU/L penicillin, 25 mg/L streptomycin, and 10% FCS (heat-inactivated) in 50 mL TubeSpin bioreactors. J774 cells were incubated at 37 °C and 5% CO2 on a roller culture apparatus (5 rpm) in a Heraeus Cytoperm 8080 incubator (Thermo Electron Corp., Vienna, Austria). To determine the cell count, the cell suspension was re-suspended and diluted 1:2 with phosphate-buffered saline (PBS): 137 mM NaCl, 1.4 mM KH2PO4, 4.3 mM Na2HPO4, and 2.7 mM KCl, pH 7.4. After fixation of the cells by mixing the cell suspension 1:1 with a formaldehyde solution (2%, v/v), aliquots of the resulting suspension were transferred into a standard Neubauer chamber (VWR, Austria) and counted manually using a light microscope (Motic BA310, Vienna, Austria) at a magnification of 40 times. J774 cells were passaged twice a week in a ratio of 1:10.
DMEM containing 25,000 U/L penicillin, 25 mg/L streptomycin, 10% FCS, and 1 × 10^5 J774/mL was prepared. This mixture (200 µL) was distributed in cell culture-treated 96-well plates, except the control wells which contained only DMEM. The cells were incubated for 24 h at 37 °C and 5% CO2 to allow attachment. Afterwards the medium and non-adherent cells were removed by washing with PBS, and then, 200 µL DMEM was added to attached cells. Compounds dissolved in DMSO were added in starting concentrations of 25 µM (Pen) or 200 µM (AcEP/Ac), and then, serial dilutions were carried out resulting in the same concentration steps as listed for LtP. For each compound concentration triplicates on each plate were performed. […], 50 µL of resazurin solution (final concentration 20 µM) was added, and after 4 h of incubation, the fluorescence was measured at 560 nm excitation and 590 nm emission using a plate reader (Perkin Elmer EnSpire, Rodgau, Germany). All tests were repeated at least on four different weeks of cultivation.
as §2

[2] = Formation of the xylenol orange/Fe3+ complex by EP; conditions: AcEP and 250 µM FeSO4 in methanol/H2O (9:1); for XO/Fe^3+ Formation Rate: mean ± SD of 3 experiments
Description: In subsequent experiments, we explored the activation of EP and possible cellular consequences of these compounds in Leishmania. In a chemical system, we tested how fast EP react with iron (II) and, therefore, lead to the activation of these compounds. Resulting iron (III) was detected as complex with xylenol orange (XO, Figure 3). The reaction rate of the EP stretched across two magnitudes of orders (Table 3). On the first view, there is no direct link between the activation rates and the efficiency of the compounds against Leishmania.
XO (125 µM) and butylated hydroxytoluene (4 mM) were dissolved in MeOH/H2O (9:1). FeSO4 (25 mM) in 2.5 M H2SO4 was prepared immediately before use (final concentration of 250 µM FeSO4 in the color reagent). An aliquot of 100 µL EP solution (final concentration of 100 µM) was transferred into a disposable cuvette (BRAND, Wertheim, Germany), and 1 mL of the color reagent was added. The EP that reacted slower were incubated for 0, 30, 60, and 90 min at 25 °C. The EP that reacted faster were measured every 5 s over 5 min. At these time points, the OD difference of the sample at 560 nm and 650 nm was determined using a MS1501 UV–VIS diode array spectrophotometer (Shimadzu, Kyoto, Japan). As reference, a mixture of MeOH/H2O (9:1) was used. The slope of the reaction rate was calculated using an extinction coefficient of 1.5 × 10^4 M^−1 cm^−1.

LtP = experiment: Superoxide radical formation in LtP by the EPR/CMH method; type: cell-based, Leishmania tarentolae; conditions: antimycin A 20 µM, 20 min at 25 °C
Description: Since mitochondrial inhibition can be triggered by secondary damage in the respective cells, for example, by superoxide radicals, we studied the formation of superoxide radicals in LtP by the EPR/hydroxyl-3-methoxycarbonyl-2,2,5,5-tetramethylpyrrolidine hydrochloride (CMH) method (Figure 10). […] In the presence of antimycin A (AA, an inhibitor of mitochondrial complex III), the superoxide radical formation in LtP is increased by more than 150% (Figure 11).
An aliquot of the LtP cell culture equivalent to 5 × 10^8 LtP was transferred into a 1.5 mL Eppendorf tube and was centrifuged (Hettich Universal 16, 20 °C, 2000× g, 10 min). After removal of the supernatant, the cell pellet was re-suspended in 1 mL PBS and centrifuged again and the supernatant discarded. The cell pellet was re-suspended in 1 mL of PBS with 15 mM glucose (PBS-gluc), giving a final cell density of 5 × 10^8 LtP/mL. AcEP/Ac compounds were added (100 µM final concentration) to aliquots of 50 µL of this cell suspension in 1.5 mL Eppendorf tubes and incubated for 20 min at 25 °C. Then, DFO (100 μM final concentration), DTPA (25 μM final concentration), and detection agent CMH (400 µM final concentration) were added to the aliquots before measurement. Samples containing only buffer (PBS-gluc) or only LtP (in PBS-gluc) were used as negative controls, while samples containing 20 μM AA were used as positive control. An aliquot of 17 µL suspension was aspirated into a PTFE tube (ø 0.7 mm). The tube was folded into a quartz tube (ø 4 mm outer diameter) and then transferred to the MD5 resonator of the EPR spectrometer. The measurement was started using following parameters: microwave frequency 9.682 GHz; microwave power 20 mW, modulation frequency 100 kHz; modulation amplitude 1 G; time constant 0.82 s; center field 3448 G; sweep width 100 G; scan time 84 s; attenuation 70 dB; separate scans 5. Based on a calibration curve with carboxy proxyl (CP^●) changes of the peak-to-peak intensity of CM^● spectra were converted to CMH oxidation rates (superoxide radical generation).

[3] = resazurin viability, endpoint 48 h, 2 × 10^6 LtP/mL, mean ± SD of 4–8 experiments
[4] = Mus musculus, J774, 48 h, resazurin viability, endpoint 48 h, 10^5 J774 cells/mL, mean ± SD of 4–8 experiments

Structure (SMILES)	IC50 [1, 3] [µM]	Selectivity IC50,J774/IC50,LtP [1]	IC50 (J774 macrophages; [4]) [µM]	Log10 (Formation Rate) [2]	XO/Fe^3+ Formation Rate [2]	also measured
CC(=O)OCC1OC(C23C=C(C(C)(C)C)C(C4OC(COC(C)=O)C(OC(C)=O)C(OC(C)=O)C4OC(C)=O)(OO2)c2ccccc23)C(OC(C)=O)C(OC(C)=O)C1OC(C)=O (stereo not drawn) [MB359EP]	> 200		> 200	4.26	18,533 ± 1147 nmol/min	
CC(=O)OCC1OC(OC23OOC(c4ccccc42)c2ccccc23)C(OC(C)=O)C(OC(C)=O)C1OC(C)=O (stereo not drawn) [MonoGluAcEP]	32.3 ± 23.4	4.7	153 ± 82.1	4.10	12,697 ± 1500 nmol/min	IC50,non-EP/IC50,EP [1]: 4.89
c1ccc(-c2c3ccccc3c(-c3ccccc3)c3ccccc23)cc1 [DPAc]	197 ± 92	0.7	136 ± 35			Activity against LtP, in words ([1]; viability assay): rather inactive
CC(C)(C)c1ccc2c(-c3ccccn3)c3ccccc3c(-c3ccccn3)c2c1 [pPyBuAc]		57				IC50 ([1]; 48 h): 1.86 ± 1.1 µM; IC50 (J774 macrophages; Mus musculus, J774, 48 h): 107 ± 46 µM
c1ccc2c(c1)C1OOC2c2ccccc21 [AcEP]	19.7 ± 14.1	0.06	1.21 ± 0.32	3.90	8110 ± 4197 nmol/min	IC50,non-EP/IC50,EP [1]: >10.1
c1cncc(C23OOC(c4cccnc4)(c4ccccc42)c2ccccc23)c1 [mPyAcEP]	> 200		> 200	2.85	708 ± 37 nmol/min	IC50,non-EP/IC50,EP [1]: <0.26
COc1ccccc1-c1c2ccccc2c(-c2ccccc2OC)c2ccccc12 [oOMeAc]	73.3 ± 25.2	>2.7	> 200			
CCCCCC[C@H]1C(=O)O[C@H](C)[C@H](NC(=O)c2cccc(NC=O)c2O)C(=O)O[C@@H](C)[C@@H]1OC(=O)CC(C)C [antimycin A, reference compound]						Increase of superoxide radical formation in LtP (LtP): more than 150%
CC(=O)OCC1OC(Oc2c3ccccc3cc3ccccc23)C(OC(C)=O)C(OC(C)=O)C1OC(C)=O (stereo not drawn) [MonoGluAc]	158 ± 45.1	0.6	101 ± 7.8			
CC(=O)OCC1OC(Oc2c3ccccc3c(OC3OC(COC(C)=O)C(OC(C)=O)C(OC(C)=O)C3OC(C)=O)c3ccccc23)C(OC(C)=O)C(OC(C)=O)C1OC(C)=O (stereo not drawn) [BisGluAc]	> 200		> 200			

Second part, led by results:

IC50 [1, 3] [µM]	Selectivity IC50,J774/IC50,LtP [1]	Structure (SMILES)	IC50 (J774 macrophages; [4]) [µM]	Log10 (Formation Rate) [2]	XO/Fe^3+ Formation Rate [2]	also measured
34.5 ± 12.8	2.0	c1ccc(-c2c3ccccc3c(-c3ccccn3)c3ccccc23)nc1 [oPyAc]	70 ± 10.5			
52.5 ± 3.3	1.2	c1cncc(-c2c3ccccc3c(-c3cccnc3)c3ccccc23)c1 [mPyAc]	63.7 ± 7.6			
> 200		CC(=O)OCC1OC(OC23OOC(OC4OC(COC(C)=O)C(OC(C)=O)C(OC(C)=O)C4OC(C)=O)(c4ccccc42)c2ccccc23)C(OC(C)=O)C(OC(C)=O)C1OC(C)=O (stereo not drawn) [BisGluAcEP]	> 200	3.83	6800 ± 326 nmol/min	
0.52 ± 0.16		N=C(N)c1ccc(OCCCCCOc2ccc(C(=N)N)cc2)cc1 [Pen, pentamidine, reference compound]	~12			LtP IC50 [1, 3]: submicromolar; IC50 (J774 macrophages; resazurin viability, endpoint 48 h, 10^5 J774 cells/mL, mean ± SD of 4–8 experiments): 12.3 ± 3.96 µM

Source: paper PMC9612231, “Antileishmanial Anthracene Endoperoxides: Efficacy In Vitro, Mechanisms and Structure-Activity Relationships” (Molecules, 2022)
